Experimental findings from patent US5498624A, “Selected pyrazolyl derivatives” (Monsanto Company, priority 1995, dated 1996) are described below.

One assay deals with Botrytis cinerea. Nature of the assay: Vine Grey Mold on Berries (VGM Prot). It is filed as in vivo. As to conditions: grape berries, inoculated 24 hours after treatment. As for the experimental part: A) Pathogen/Inoculum Production--The grey mold fungus, Botrytis cinerea, is cultured on PDA at 20° C. and 12 hours fluorescent light until the radial growth is slightly less than the plate diameter. A 1×10^6spore/ml suspension in sterile water (0.05% Tween®20) is made by dislodging spores in a flooded plate, filtering out mycelium, and adjusting the concentration.
B) Host Preparation--Thompson or Red Flame seedless table grapes from local grocery stores are used. Grapes are washed first in room temperature soapy water solution (a few drops of detergent per gallon), and then surfaced sterilized in 70% ethanol for one minute, followed by two rinses in sterile water. Berries are chosen which still have stem (pedicel) attached.
1) Experimental compounds--Each of the compounds of the present invention are applied at 200, 50, and 20 ppm. Formulation is generally in 40% acetone, 59.95% water, and 0.05% Tween®20. Replication is 6 berries per treatment. Compound is pipetted onto berries at 1.0 ml/treatment (6 berries) in a sterile petri plate. After drying, each berry is transferred to an individual well in a 12-well tissue culture plate. Formulated materials, such as commercial preparations are generally applied using the formulation only (no acetone or surfactant added).
2) Controls and Standards--Three technical grade commercial standards are used, usually at 200 and 50 ppm; benomyl, iprodione, and vinclozolin. The test controls include a uninoculated, formulation treated set as well as an inoculated, formulation treated set.
D) Inoculation/Incubation--Each berry is inoculated with 0.2 ml of spore suspension, using a sterile pipet. Incubation is in the 12-well culture plates at 20° C., 12 hour photoperiod.
E) Test Execution--One day protectant--Berries are inoculated as described 24 hours after chemical treatment.
F) Evaluation--The test is rated 7-10 days after inoculation. Percent surface area infected with disease is determined for each replicate using the values of 0, 1, 2, 5, 10, 15, 20, 25, etc. through 100%. Treatment means are calculated and percent disease control is determined by the formula "(control mean--treatment mean)*100/control mean". The untreated/inoculated control treatment is used for this calculation. The resultant percent protection or percent disease control values for the compounds of the present invention are as set out in the Table below.

In the next assay the target is Succinate Dehydrogenase. Nature of the assay: Enzyme Inhibition I-50 (WGB): Succinate Dehydrogenase Assay using Septoria nodorum mitochondria. The note with it: DCPIP reduction, read-out: WGB enzyme I-50. It is filed as biochemical. As for the experimental part:
Succinate Dehydrogenase Assay using Septoria nodorum mitochondria--Septorianodorum mycelia are prepared from spores via shake culture for 40-48 hours in 3% malt extract at room temperature. The mycelia are harvested by centrifugation and the pellets obtained are stored in the -80° C. freezer until use.
Mitochondria are isolated by a method adapted from White (Biochem. Biophys. Res. Commun. 44 (1971) 1212-19). Fifteen to twenty grams of frozen mycelia are resuspended in a 250 mL medium containing 0.25M sucrose, 5 mM tetrasodium ethylenediamine tetraacetic acid (Na4 EDTA), pH 7.0 containing 1.5 g/liter bovine serum albumin (BSA) and placed in a Bead Beater chamber (BioSpec Products, Bartlesville, Okla.). Zirconium oxide beads (0.5 mm) are added to finish filling the chamber. Four 30s beats separated by 2 rain temperature equilibration periods on ice are used to break the mycelia. The homogenate is centrifuged for 20 min at 3000×g and 4° C. to remove debris. The supernatant is recentrifuged at 20,000×g for 20 min at 4° C. The resulting pellet is resuspended in BSA-free sucrose/EDTA medium (40 mL) using a glass tissue homogenizer and teflon pestle and recentrifuged at 27,000×g for 15 min at 4° C. The pellet is resuspended in BSA-free sucrose/EDTA medium (~3 mL) and used for SDH assays.
The enzyme activity is measured at […] in a solution containing 50 mM potassium phosphate, pH7.2; 1 mM potassium cyanide; 45 μM 2,6-dichlorophenol indophenol (DCPIP) and 17 mM disodium succinate in a final volume of 1 mL with a Perkin-Elmer Lambda 7 ultraviolet-visible spectrophotometer. The test compounds are added as acetone solutions (final concentration of acetone less than or equal to 1%(v/v)). The mitochondrial preparations are used to initiate the reaction. All rates are corrected for succinate-independent dye reduction. Semilog plots of percentage inhibition versus test compound concentration are used to determine inhibition expressed as I50 (μM) which is the concentration required to inhabit the rate of DCPIP reduction by 50%. The commercial fungicide carboxin is used as a standard throughout [I50 (μM)=5.0±2.2; n=52].

Assay [1] has as its system Erysiphe graminis f. sp. tritici. The assay can be described thus: Wheat Powdery Mildew Foliar Assay (WPM Prot). Type of assay: in vivo. As for the experimental part:
A) Pathogen/Inoculum Production--Leaf material infected with the wheat powdery mildew fungus, Erysiphe graminis f. sp. tritici, is maintained continuously on wheat seedlings, cv. Caldewell.
(B) Host Propagation, (C) Compound Preparation and (D) Compound Application follow as per Example 1.
(E) Inoculation/Incubation--Inoculation of the test plants takes place 24 hours after compound application. Inoculation is accomplished by gently shaking plants previously infected with the Erysiphe graminis f. sp. tritici fungus over the test plants. This process liberates a cloud of spores which effectively and uniformly fall onto the test plants. After inoculation the plants are returned to the environmental conditions under which they were grown.
(F) Evaluation and (G) Data follow as per Example 1. The percent protection values for the compounds of the present invention are as set out in the Table below.

Where [2] appears, read: 20 ppm foliar protectant, * = averaged value.
Setting [3] is: 100 ppm foliar protectant, * = averaged value.

With `C[C@@H]1CCC[C@H](c2ccccc2NC(=O)c2cn(C)nc2C(F)F)C1` (relative stereo) [Number 2, 1H-pyrazole-4-carboxamide, 3-(difluoromethyl)-1-methyl-N-[2-(-3-methylcyclohexyl)phenyl]-, cis-], the “VGM Prot percent disease control” value with Botrytis cinerea (20 ppm, * = averaged value) was 90%; in the assay with Botrytis cinerea (50 ppm, * = averaged value), 93%; with Botrytis cinerea (200 ppm), 99%. Besides, the IC50 on Succinate Dehydrogenase was 37 nM. For the same compound, the results for the “WPM Prot percent disease control” value in assay [1] (setting [2]) and in assay [1] (setting [3]) were 44% and 65%, respectively.
For `C[C@H]1CCC[C@H](c2ccccc2NC(=O)c2cn(C)nc2C(F)F)C1` (relative stereo) [Number 3, 1H-pyrazole-4-carboxamide, 3-(difluoromethyl)-1-methyl-N-[2-(3-methylcyclohexyl)phenyl]-, trans-], the “VGM Prot percent disease control” value stood at 67% with Botrytis cinerea (20 ppm, * = averaged value) and 87% in the assay on Botrytis cinerea (50 ppm, * = averaged value). Further, the IC50 at Succinate Dehydrogenase amounted to 50 nM. The “WPM Prot percent disease control” value in assay [1] (setting [2]) is 77%; in assay [1] (setting [3]) it was 100%.
As for `Cn1cc(C(=O)Nc2ccccc2[C@@H]2CCC[C@@H](C(F)(F)F)C2)c(C(F)F)n1` (relative stereo) [Number 6], the IC50 on Succinate Dehydrogenase came to 520 nM. Also, in assay [1] (500 ppm foliar protectant), the “WPM Prot percent disease control” value was determined as 98%.
Take `CC[C@H]1CC[C@@H](c2ccccc2NC(=O)c2cn(C)nc2C(F)F)CC1` [Number 1, 1H-pyrazole-4-carboxamide, 3-(difluoromethyl)-N-[2-(4-ethylcyclohexyl)phenyl]-1-methyl-, cis-]: the “VGM Prot percent disease control” value with Botrytis cinerea (50 ppm, * = averaged value) came to 93%; in the assay with Botrytis cinerea (200 ppm) it was 99%. Also, the IC50 at Succinate Dehydrogenase was 15 nM.
Regarding `Cn1cc(C(=O)Nc2ccccc2[C@H]2CC[C@H](C)CC2)c(C(F)(F)F)n1` [Number 4, 1H-pyrazole-4-carboxamide, 1-methyl-N-[2-(4-methylcyclohexyl)phenyl]-3-(trifluoromethyl)-, trans-], the “VGM Prot percent disease control” value with Botrytis cinerea (20 ppm, * = averaged value) was 41%; with Botrytis cinerea (50 ppm, * = averaged value) it was 67%. Further, the IC50 at Succinate Dehydrogenase came out at 29 nM. For the same compound, the figures for the “WPM Prot percent disease control” value in assay [1] (setting [2]), in assay [1] (setting [3]) and in assay [1] (500 ppm foliar protectant) were 65%, 91% and 100%, respectively.
`Cn1cc(C(=O)Nc2ccccc2C2CCC(C)(C)CC2)c(C(F)F)n1` [Number 5, 1H-pyrazole-4-carboxamide, 3-(difluoromethyl)-N-(2-(4,4-dimethylcyclohexyl)phenyl]-1-methyl-]: at Succinate Dehydrogenase, the IC50 was found to be 8 nM. Moreover, the figures for the “WPM Prot percent disease control” value in assay [1] (setting [2]), in assay [1] (setting [3]) and in assay [1] (500 ppm foliar protectant) were 52%, 79% and 92%, respectively.
